Source: PubChem BioAssay (NCI)
Several values for one entry are separate records, joined by “and”; a condition that tells them apart may be missing. Equal values may be shown once.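 96-well plates; 48 h exposure; 5 concentrations. Endpoints by linear interpolation between flanking doses. Not reached: highest tested concentration assigned. At the GI50, growth is halved. The concentration for full growth arrest is given as TGI.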

Key:
Experiment in all cases: NCI tumour cell line growth inhibition, 48 h
SF-268 CNS = test system: SF-268 CNS
SN12C renal = test system: SN12C renal
K-562 leukemia = test system: K-562 leukemia
LOX IMVI melanoma = test system: LOX IMVI melanoma
SK-OV-3 ovarian = test system: SK-OV-3 ovarian
UACC-257 melanoma = test system: UACC-257 melanoma
NCI-H23 lung = test system: NCI-H23 lung
SF-539 CNS = test system: SF-539 CNS
NCI/ADR-RES ovarian = test system: NCI/ADR-RES ovarian
MCF7 breast = test system: MCF7 breast

SMILES | TGI (SF-268 CNS) | TGI (SN12C renal) | TGI (K-562 leukemia) | TGI (LOX IMVI melanoma) | TGI (SK-OV-3 ovarian) | TGI (UACC-257 melanoma) | TGI (NCI-H23 lung) | TGI (SF-539 CNS) | TGI (NCI/ADR-RES ovarian) | TGI (MCF7 breast) | GI50 (SN12C renal) [µM] | GI50 (SK-OV-3 ovarian) [µM] | GI50 (UACC-257 melanoma) [µM] | GI50 (NCI/ADR-RES ovarian) [µM] | GI50 (SF-268 CNS) [µM] | GI50 (SF-539 CNS) [µM] | GI50 (K-562 leukemia) [µM] | GI50 (LOX IMVI melanoma) [µM] | GI50 (NCI-H23 lung) [µM] | GI50 (MCF7 breast) [µM]
O=C(Nc1cccc(Cl)c1)C(=O)C(C(=O)c1ccc2ccccc2c1)C1OC(=O)c2ccccc21 (stereo unspecified) | 57.5 µM | 51 µM | 70.2 µM | 44.5 µM | > 100 µM | 55.5 µM | 24.8 µM |  |  |  |  |  |  |  |  |  |  |  |  | 
COc1ccc2c(c1OCC(=O)O)C(=O)C(CCC(=O)O)CC2 (stereo unspecified) |  | > 100 µM |  | > 100 µM | > 100 µM | > 100 µM | > 100 µM | > 100 µM |  |  |  |  |  |  |  |  |  |  |  | 
CC1CC2CCCC(O)=C2C(=O)O1 (stereo unspecified) | > 100 µM | > 100 µM | > 100 µM | > 100 µM | > 100 µM | > 100 µM | > 100 µM | > 100 µM | > 100 µM | > 100 µM |  |  |  |  |  |  |  |  |  | 
CCOC(=O)N[C@H]1CCc2cc(OC)c(OC)c(OC)c2-c2ccc(SC)c(=O)cc21 | 47.2 µM and > 100 µM | > 100 µM | > 100 µM | > 100 µM | 26.8 µM and > 100 µM | > 100 µM |  | < 0.01 µM | > 100 µM | > 100 µM | < 0.01 | < 0.01 | > 70.5 | 0.0319 |  |  |  |  |  | 
COC(=O)/C(C#N)=C1\N=NNN1c1ccc(OC)cc1 |  | > 100 µM | > 100 µM | > 100 µM | > 100 µM | > 100 µM | > 100 µM | > 100 µM |  |  |  |  |  |  |  |  |  |  |  | 
O=C1N=C2Sc3ccc4ccccc4c3N2C1=O | 52.3 µM | 43.8 µM | > 100 µM | 38.2 µM | 31.6 µM | 96.8 µM | 53.3 µM | 36.6 µM |  |  |  |  |  |  |  |  |  |  |  | 
CC1(C)COC(c2cccc3c2C(=O)c2cccc(Cl)c2-3)=N1 | > 100 µM | > 100 µM | > 100 µM | > 100 µM | > 100 µM | > 100 µM | > 100 µM | > 100 µM |  |  |  |  |  |  |  |  |  |  |  | 
CCCC(=O)Nc1cn(COC)c(C(=O)N2C[C@@H]3C[C@]34C2=CC(=O)c2[nH]cc(C)c24)n1 | 30.5 µM and 8.66 µM | 30.9 µM and 22.9 µM | 50 µM and > 100 µM | 21.9 µM and 53.8 µM | 28.2 µM and 29.4 µM | 23.5 µM and 27.7 µM | 14.7 µM and 6.4 µM | 50 µM and 15.8 µM | 20.7 µM and 28.9 µM | 50 µM and 11.6 µM |  | 13.7 | 13.3 | 14.9 | 2.65 | 4.27 | 3.02 |  |  | 
O=C(CC1C(=O)Nc2ccccc2S1=O)Nc1cc(Cl)ccc1Cl (stereo unspecified) | > 100 µM | > 100 µM | > 100 µM | > 100 µM |  | > 100 µM | > 100 µM | > 100 µM |  |  |  |  |  |  |  |  |  |  |  | 
CCOc1ccc(/C=C2\N=C(c3ccc([N+](=O)[O-])cc3)OC2=O)cc1 | > 100 µM | > 100 µM | > 100 µM | > 100 µM | > 100 µM | > 100 µM | > 100 µM | > 100 µM |  | > 100 µM |  |  |  |  |  |  |  |  |  | 
O=[N+]([O-])c1ccc2occ3c2c1CCC3 | > 100 µM | > 100 µM | > 100 µM | > 100 µM | > 100 µM | > 100 µM | > 100 µM | > 100 µM |  |  |  |  |  |  |  |  |  |  |  | 
CNCCOC(=O)/C=C1\CC[C@H]2[C@@H]([C@@H](O)C(=O)[C@@H]3[C@]2(C)CC[C@H](O)[C@]3(C)C(=O)OC)[C@H]1C | 0.59 µM | 1.64 µM | 2.37 µM | 1.38 µM | 1.36 µM | 1.73 µM | 0.644 µM | 0.701 µM | 0.444 µM | 1.7 µM | 0.327 | 0.392 | 0.479 | 0.22 | 0.233 | 0.267 | 0.412 | 0.357 | 0.245 | 0.368
NNC(=O)CNc1cccc(Br)c1 | > 100 µM | > 100 µM | > 100 µM | > 100 µM | > 100 µM | > 100 µM | > 100 µM | > 100 µM | > 100 µM | > 100 µM |  |  |  |  |  |  |  |  |  | 
CCCCCCCCCCCCCCCC(=O)OCCOCCOCCOCc1ccccc1 | > 100 µM | > 100 µM |  | > 100 µM |  | > 100 µM | > 100 µM | > 100 µM |  |  |  |  |  |  |  |  |  |  |  | 
N#CC(C(=O)/C(=N\NC(N)=O)C(C#N)c1ccc(Cl)cc1)c1ccc(Cl)cc1 (stereo unspecified) | > 100 µM | > 100 µM | > 100 µM | > 100 µM | > 100 µM | > 100 µM | > 100 µM | > 100 µM |  |  |  |  |  |  |  |  |  |  |  | 
COc1c(O)c2c(=O)cc3c4c5c(cc(=O)c6c(O)c(OC)c(CC(C)O)c(c(c1CC(C)O)c24)c65)OCO3 (stereo unspecified) | 5.97 µM | 3.18 µM | 43.3 µM | 2.28 µM | 20.4 µM | 2.78 µM | 3.1 µM | 4.31 µM |  |  |  |  |  |  |  |  |  |  |  | 
COC(=O)[C@]12CC[C@@H](C)[C@H](C)[C@@H]1C1=CC[C@@H]3[C@@]4(C)C[C@@H](O)[C@H](O)[C@@](C)(CO)C4=CC[C@@]3(C)[C@]1(C)CC2 | 34.8 µM |  | 36.6 µM | 34.9 µM | 34.4 µM | 35.5 µM | 33.6 µM | 34.6 µM | 33.9 µM | 31.2 µM |  | 19.7 | 20.1 | 16.6 | 17.4 | 17.7 | 17.5 | 16.8 | 16.2 | 14.2
Cc1nc(Nc2ccc(Cl)cc2)sc1C(=O)NNC(=S)NN | 48.5 µM | 34.3 µM | 99 µM | 29.5 µM | 54 µM | 27.3 µM | 33.4 µM | 31.8 µM |  |  |  |  |  |  |  |  |  |  |  | 
Nc1ncn([C@@H]2O[C@H](CO)[C@@H](O)[C@H]2O)c(=O)n1 | 34.7 µM | > 100 µM | > 100 µM | 2.1 µM | 5.46 µM |  | 41.1 µM |  | 10.6 µM | 18.2 µM | 0.594 | 1.14 |  | 1.2 | 2.14 |  | 0.572 | 0.292 | 3.91 | 1.24
COc1ccc(-c2nnc3n(C)c(=O)c4ccccc4n23)cc1N | > 100 µM | > 100 µM | > 100 µM | > 100 µM | > 100 µM |  | > 100 µM | 8.82 µM | > 100 µM | > 100 µM | 6.83 | 3.25 |  | 0.0656 | 7.17 | 1.63 | 0.0395 | 3.01 | 5.28 | 0.043
